A value given as a limit tells only on which side of the number the result lay.

In experiment [1] the target is T1, Protein deacetylase HDAC6 (Homo sapiens, UniProt Q9UBN7).
T1 sequence (Q9UBN7 whole entry): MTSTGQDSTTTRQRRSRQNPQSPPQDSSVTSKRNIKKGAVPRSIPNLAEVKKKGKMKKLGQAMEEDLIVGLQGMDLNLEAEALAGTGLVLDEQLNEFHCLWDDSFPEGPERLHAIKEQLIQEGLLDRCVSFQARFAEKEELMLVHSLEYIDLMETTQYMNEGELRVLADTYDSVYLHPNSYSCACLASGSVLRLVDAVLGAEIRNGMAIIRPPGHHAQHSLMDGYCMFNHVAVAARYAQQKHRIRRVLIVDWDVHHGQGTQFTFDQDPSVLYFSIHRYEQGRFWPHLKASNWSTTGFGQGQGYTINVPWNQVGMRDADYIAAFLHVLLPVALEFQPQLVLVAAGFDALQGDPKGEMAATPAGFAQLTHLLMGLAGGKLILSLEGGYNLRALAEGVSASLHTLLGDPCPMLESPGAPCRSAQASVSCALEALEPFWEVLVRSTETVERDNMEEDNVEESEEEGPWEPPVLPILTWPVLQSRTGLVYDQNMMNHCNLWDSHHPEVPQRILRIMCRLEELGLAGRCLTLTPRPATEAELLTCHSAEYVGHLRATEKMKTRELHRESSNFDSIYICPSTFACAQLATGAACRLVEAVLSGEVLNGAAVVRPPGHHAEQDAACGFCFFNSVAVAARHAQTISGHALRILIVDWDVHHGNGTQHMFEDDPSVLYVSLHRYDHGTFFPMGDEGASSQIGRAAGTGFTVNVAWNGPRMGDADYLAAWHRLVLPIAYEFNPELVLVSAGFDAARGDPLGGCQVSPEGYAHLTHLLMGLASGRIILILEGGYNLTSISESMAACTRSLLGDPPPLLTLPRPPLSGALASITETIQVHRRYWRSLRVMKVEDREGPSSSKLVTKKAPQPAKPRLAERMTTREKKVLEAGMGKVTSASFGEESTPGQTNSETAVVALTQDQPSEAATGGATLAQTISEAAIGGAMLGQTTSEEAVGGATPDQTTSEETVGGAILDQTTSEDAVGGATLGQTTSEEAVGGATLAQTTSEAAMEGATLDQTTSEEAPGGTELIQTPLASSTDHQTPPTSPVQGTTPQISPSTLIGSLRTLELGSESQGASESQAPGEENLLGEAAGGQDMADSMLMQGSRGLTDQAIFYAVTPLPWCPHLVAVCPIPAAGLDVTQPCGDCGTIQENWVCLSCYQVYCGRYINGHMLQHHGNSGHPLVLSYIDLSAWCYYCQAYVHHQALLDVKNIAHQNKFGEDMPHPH

For experiment [2], the target named is Ubiquitin carboxyl-terminal hydrolase 9X (Homo sapiens) (UniProt Q93008). Put plainly: Inhibition of USP9X (unknown origin) at 2.5 uM.
Ubiquitin carboxyl-terminal hydrolase 9X (Homo sapiens), sequence (Q93008 whole entry): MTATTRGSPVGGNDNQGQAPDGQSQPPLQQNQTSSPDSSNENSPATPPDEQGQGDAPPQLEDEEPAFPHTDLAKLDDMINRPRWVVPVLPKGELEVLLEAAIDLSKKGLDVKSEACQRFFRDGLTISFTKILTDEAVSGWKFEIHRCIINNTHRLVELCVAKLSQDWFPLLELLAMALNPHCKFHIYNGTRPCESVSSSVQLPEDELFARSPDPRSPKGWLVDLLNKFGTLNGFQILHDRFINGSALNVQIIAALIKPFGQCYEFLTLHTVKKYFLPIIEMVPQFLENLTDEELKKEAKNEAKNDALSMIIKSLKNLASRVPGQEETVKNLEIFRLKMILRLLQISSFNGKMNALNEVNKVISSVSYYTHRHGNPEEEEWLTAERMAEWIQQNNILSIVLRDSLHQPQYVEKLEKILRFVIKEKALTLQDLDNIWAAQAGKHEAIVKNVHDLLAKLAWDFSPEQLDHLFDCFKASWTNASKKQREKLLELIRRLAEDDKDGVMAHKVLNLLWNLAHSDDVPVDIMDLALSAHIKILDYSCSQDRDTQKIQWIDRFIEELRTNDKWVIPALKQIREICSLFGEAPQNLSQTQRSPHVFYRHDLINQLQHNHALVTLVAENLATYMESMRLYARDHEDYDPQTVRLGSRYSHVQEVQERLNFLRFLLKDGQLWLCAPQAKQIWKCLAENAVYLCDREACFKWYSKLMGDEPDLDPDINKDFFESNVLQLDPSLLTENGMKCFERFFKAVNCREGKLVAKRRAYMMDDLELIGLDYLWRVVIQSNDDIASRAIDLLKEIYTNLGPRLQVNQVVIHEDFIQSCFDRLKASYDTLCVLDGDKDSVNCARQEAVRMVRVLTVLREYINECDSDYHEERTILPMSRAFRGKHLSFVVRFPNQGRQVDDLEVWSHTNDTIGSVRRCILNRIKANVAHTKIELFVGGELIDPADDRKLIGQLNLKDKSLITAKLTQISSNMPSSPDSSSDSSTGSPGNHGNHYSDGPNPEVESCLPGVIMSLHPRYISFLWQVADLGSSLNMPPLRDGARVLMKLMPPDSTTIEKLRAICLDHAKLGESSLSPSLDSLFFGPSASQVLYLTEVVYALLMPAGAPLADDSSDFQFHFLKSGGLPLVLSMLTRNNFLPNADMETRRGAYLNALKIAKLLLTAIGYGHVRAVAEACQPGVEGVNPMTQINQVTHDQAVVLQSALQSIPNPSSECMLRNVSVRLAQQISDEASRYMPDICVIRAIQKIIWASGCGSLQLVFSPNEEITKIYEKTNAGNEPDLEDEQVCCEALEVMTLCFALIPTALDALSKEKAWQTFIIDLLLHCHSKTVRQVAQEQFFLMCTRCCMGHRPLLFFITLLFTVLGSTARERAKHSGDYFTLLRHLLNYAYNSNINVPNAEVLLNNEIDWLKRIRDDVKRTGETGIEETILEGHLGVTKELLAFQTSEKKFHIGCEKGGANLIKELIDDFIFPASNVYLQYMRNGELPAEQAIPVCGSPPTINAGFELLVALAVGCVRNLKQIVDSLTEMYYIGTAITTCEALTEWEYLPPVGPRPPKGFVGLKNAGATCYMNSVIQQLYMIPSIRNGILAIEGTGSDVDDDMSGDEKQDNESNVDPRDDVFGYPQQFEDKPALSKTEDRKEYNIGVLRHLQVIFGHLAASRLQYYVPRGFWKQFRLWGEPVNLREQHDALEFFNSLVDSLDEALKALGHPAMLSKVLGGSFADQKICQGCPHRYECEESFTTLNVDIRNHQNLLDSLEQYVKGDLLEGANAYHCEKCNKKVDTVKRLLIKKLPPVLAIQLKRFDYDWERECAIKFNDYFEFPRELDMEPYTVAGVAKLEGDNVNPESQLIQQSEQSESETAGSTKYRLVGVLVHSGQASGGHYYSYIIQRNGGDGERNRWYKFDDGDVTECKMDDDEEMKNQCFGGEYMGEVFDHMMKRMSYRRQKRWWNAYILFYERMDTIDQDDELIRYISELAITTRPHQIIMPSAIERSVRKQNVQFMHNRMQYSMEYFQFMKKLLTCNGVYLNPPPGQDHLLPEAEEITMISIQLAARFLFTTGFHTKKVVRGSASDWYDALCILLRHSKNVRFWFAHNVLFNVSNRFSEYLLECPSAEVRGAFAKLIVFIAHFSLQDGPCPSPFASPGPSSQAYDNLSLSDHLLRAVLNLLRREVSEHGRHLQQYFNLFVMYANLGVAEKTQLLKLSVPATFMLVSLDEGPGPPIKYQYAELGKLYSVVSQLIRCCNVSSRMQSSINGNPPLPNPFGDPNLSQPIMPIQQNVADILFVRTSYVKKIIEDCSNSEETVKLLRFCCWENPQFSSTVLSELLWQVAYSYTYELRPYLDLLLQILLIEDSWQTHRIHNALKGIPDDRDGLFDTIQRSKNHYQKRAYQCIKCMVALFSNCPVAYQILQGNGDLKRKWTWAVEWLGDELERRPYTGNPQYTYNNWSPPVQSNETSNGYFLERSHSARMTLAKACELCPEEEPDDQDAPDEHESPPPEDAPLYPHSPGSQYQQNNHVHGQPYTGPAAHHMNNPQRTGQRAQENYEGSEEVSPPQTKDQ
The target in experiment [3] is Ubiquitin carboxyl-terminal hydrolase isozyme L1 (Homo sapiens) (UniProt P09936). Put plainly: Inhibition of UCH-L1 (unknown origin) at 2.5 uM.
Ubiquitin carboxyl-terminal hydrolase isozyme L1 (Homo sapiens), sequence (P09936 whole entry, looked up): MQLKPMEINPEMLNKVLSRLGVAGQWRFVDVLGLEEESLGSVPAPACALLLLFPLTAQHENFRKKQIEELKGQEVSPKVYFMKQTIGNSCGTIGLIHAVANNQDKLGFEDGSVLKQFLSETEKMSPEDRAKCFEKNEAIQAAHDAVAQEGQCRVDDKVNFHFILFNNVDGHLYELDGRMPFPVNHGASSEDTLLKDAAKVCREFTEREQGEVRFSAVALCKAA
Experiment [4] deals with T2, Ubiquitin carboxyl-terminal hydrolase 5 (Homo sapiens) (UniProt P45974).
T2 sequence (whole entry): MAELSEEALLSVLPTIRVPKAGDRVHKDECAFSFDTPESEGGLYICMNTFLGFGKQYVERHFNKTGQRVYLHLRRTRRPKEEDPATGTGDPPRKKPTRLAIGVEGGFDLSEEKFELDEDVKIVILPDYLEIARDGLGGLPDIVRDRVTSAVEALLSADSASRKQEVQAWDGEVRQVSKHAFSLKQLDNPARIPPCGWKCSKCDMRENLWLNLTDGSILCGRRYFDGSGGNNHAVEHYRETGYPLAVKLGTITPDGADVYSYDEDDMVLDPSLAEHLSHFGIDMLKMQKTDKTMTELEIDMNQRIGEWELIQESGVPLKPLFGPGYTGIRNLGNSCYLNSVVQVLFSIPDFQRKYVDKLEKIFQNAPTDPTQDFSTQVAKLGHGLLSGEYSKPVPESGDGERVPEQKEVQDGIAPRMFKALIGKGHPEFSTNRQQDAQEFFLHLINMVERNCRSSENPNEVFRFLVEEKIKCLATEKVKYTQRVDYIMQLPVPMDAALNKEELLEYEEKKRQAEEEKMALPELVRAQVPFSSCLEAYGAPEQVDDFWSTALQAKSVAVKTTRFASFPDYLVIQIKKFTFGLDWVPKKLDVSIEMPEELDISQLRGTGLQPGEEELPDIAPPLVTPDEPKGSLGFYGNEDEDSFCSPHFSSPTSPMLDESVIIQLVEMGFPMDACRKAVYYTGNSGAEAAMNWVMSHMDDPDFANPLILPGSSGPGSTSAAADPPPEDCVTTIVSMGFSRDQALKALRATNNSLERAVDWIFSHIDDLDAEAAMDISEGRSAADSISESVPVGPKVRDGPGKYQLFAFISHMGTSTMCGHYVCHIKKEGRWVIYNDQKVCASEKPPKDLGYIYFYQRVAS
In words: Inhibition of USP5 (unknown origin) at 2.5 uM.

For experiment [5], the target named is T3, Ubiquitin carboxyl-terminal hydrolase 4 (Homo sapiens, UniProt Q13107).
T3 sequence (Q13107 whole entry): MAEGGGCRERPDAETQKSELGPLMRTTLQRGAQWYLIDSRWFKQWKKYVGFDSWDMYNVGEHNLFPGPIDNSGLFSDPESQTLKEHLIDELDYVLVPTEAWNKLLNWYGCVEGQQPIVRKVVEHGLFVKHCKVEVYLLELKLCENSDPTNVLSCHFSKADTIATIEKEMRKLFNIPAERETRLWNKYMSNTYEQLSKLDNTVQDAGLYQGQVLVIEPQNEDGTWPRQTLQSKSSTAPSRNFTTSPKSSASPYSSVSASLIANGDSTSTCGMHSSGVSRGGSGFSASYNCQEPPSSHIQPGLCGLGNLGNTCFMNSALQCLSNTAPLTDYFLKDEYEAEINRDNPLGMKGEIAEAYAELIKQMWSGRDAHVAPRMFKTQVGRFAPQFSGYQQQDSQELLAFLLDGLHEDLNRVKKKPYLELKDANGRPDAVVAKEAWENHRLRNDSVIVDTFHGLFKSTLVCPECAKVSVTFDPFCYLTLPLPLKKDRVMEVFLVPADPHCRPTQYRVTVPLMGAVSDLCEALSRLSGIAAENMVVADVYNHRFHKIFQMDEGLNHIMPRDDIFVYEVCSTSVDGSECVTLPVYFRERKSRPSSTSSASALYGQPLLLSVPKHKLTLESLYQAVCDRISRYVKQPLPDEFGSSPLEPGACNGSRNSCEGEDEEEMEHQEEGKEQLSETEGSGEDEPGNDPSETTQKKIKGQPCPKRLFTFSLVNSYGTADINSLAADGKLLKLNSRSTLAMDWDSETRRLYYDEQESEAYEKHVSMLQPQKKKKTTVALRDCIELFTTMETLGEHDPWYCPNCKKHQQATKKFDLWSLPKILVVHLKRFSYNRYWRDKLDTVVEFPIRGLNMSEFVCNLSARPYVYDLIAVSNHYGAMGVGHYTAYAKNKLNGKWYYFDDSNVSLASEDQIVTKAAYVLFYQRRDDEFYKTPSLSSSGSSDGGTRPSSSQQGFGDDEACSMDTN
Put plainly: Inhibition of USP4 (unknown origin).

Experiment [6] deals with Ubiquitin carboxyl-terminal hydrolase 7 (Homo sapiens, UniProt Q93009). In words: Inhibition of USP7 (unknown origin).
Ubiquitin carboxyl-terminal hydrolase 7, sequence (Q93009 whole entry): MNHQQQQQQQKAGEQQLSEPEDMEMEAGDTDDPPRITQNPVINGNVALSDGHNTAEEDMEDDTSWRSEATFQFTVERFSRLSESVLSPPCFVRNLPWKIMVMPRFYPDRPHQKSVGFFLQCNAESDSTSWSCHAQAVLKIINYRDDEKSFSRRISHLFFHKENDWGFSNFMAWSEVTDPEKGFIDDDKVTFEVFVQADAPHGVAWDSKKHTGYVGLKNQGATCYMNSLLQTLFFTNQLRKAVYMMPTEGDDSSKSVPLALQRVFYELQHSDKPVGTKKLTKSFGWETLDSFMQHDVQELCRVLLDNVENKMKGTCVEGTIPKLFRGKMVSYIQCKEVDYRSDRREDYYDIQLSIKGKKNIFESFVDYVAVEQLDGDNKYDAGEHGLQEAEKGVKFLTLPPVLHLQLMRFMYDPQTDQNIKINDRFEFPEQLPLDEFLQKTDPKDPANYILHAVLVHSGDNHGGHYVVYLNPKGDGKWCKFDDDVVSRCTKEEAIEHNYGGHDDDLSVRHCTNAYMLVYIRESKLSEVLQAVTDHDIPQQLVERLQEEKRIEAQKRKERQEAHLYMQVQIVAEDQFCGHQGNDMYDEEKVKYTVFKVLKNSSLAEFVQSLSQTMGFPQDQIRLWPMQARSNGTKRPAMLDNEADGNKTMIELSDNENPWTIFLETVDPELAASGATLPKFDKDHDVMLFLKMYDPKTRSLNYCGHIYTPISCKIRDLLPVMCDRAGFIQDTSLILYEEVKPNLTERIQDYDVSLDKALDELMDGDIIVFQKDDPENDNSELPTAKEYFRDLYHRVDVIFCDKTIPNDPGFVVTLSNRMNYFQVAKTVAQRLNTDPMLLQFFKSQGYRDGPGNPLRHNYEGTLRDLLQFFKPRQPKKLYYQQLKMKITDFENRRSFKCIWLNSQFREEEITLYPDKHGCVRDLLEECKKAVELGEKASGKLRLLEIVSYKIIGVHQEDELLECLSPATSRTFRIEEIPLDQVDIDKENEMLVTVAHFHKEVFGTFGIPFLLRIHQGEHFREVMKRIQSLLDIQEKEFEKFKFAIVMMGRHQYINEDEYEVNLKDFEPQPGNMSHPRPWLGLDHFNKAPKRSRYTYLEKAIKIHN
The target in experiment [7] is T4, Ubiquitin carboxyl-terminal hydrolase 2 (Homo sapiens, UniProt O75604).
T4 sequence (O75604 whole entry): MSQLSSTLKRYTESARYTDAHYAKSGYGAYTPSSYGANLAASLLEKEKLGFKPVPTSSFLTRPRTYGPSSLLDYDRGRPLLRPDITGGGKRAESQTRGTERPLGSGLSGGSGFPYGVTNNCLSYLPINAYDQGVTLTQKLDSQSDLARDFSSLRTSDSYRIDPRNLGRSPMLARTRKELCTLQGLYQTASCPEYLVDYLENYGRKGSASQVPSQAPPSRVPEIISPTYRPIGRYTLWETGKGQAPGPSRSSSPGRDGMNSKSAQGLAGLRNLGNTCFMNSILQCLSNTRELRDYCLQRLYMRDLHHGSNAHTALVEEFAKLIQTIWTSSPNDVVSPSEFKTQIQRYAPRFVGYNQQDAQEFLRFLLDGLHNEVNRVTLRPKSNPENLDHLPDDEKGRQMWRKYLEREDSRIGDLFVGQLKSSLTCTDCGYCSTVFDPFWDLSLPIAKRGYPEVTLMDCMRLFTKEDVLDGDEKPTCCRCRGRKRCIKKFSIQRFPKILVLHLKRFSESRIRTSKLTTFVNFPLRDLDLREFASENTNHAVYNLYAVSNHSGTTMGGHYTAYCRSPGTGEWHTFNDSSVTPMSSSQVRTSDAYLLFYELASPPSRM
Put plainly: Inhibition of USP2 (unknown origin).

In experiment [8] the target is T5, Ubiquitin carboxyl-terminal hydrolase 5 (Homo sapiens, UniProt P45974).
T5 sequence (P45974 whole entry): T2 sequence (whole entry)
In words: Inhibition of USP5 (unknown origin).

Experiment [9] has as its target T6, Ubiquitin carboxyl-terminal hydrolase 8 (Homo sapiens, UniProt P40818).
T6 sequence (P40818 whole entry): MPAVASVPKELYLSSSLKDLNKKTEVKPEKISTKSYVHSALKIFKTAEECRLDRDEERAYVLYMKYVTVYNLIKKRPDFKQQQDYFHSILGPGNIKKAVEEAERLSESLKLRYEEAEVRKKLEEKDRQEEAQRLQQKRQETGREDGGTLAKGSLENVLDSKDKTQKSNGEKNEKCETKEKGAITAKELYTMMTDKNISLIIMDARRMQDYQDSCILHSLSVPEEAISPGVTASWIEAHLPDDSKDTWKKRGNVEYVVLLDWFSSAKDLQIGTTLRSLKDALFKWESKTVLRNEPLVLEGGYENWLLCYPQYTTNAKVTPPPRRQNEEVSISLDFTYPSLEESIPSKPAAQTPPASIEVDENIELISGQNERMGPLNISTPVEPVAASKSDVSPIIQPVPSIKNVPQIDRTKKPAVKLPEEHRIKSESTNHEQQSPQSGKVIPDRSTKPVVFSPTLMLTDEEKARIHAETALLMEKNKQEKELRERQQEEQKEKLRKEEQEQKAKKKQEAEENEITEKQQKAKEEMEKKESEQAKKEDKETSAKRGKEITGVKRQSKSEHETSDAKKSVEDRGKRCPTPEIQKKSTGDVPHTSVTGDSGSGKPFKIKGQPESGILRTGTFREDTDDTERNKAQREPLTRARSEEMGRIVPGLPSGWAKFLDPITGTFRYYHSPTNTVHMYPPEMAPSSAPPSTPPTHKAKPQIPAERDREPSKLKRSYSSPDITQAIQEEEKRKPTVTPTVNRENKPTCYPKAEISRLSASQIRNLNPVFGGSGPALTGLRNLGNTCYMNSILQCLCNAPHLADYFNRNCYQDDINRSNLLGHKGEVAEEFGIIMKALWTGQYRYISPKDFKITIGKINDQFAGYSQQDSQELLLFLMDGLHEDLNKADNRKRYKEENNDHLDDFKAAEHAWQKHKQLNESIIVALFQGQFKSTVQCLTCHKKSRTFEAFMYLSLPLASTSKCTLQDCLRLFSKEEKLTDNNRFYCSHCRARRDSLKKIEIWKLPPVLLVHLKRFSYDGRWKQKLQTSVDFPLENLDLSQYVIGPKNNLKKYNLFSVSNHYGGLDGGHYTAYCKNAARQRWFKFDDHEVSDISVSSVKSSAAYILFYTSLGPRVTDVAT
In words: Inhibition of USP8 (unknown origin).

Regarding `O=C(O)CNC(=O)c1ccc(S(=O)(=O)N2CCC(c3ccccc3)C2)cc1` (stereo unspecified), the Kd – broadly, the free concentration of one partner at which half of the binding sites on the other are occupied at equilibrium, for simple one-to-one binding – in experiment [1] is > 1000 µM.
As to `O=C(O)CNC(=O)c1ccc(S(=O)(=O)N2CC=C(c3ccccc3)CC2)cc1`, in experiment [1], the Kd was 340 µM.
On the same count and under the same terms, in the case of `CN(C)C1CCN(S(=O)(=O)c2ccc(C(=O)NCC(=O)O)cc2)CC1` it was > 760 µM.
Still for that read-out and setting: in the case of `O=C(O)CNC(=O)c1ccc(S(=O)(=O)N2CCc3ccccc3C2)cc1` it was 290 µM; in that of `O=C(O)CNC(=O)c1ccc(S(=O)(=O)N2CCC(N3CCCC3)CC2)cc1`, 520 µM; in that of `CN1CCC2(CC1)CCN(S(=O)(=O)c1ccc(C(=O)NCC(=O)O)cc1)CC2`, 410 µM.
Same read-out and setting: then `CN1CCN(C2CCN(S(=O)(=O)c3ccc(C(=O)NCC(=O)O)cc3)CC2)CC1`, with 370 µM.
Turning to `CCC[C@H](NC(=O)/C(C#N)=C/c1cccc(Br)n1)c1ccccc1`, the inhibition (as a rule, the change of the read-out against control, counted positive when it falls) turned out to be 45% in experiment [2], 30% in [3] and 50% in [4].
As to `O=C(O)CNC(=O)c1ccc(S(=O)(=O)N2CCN(c3ccccc3)CC2)cc1`, the Kd in experiment [1] is > 480 µM.
In the case of `Cc1cc(S(=O)(=O)N2CCC(c3ccccc3)CC2)ccc1C(=O)NCC(=O)O`, in experiment [1], the Kd turned out to be 160 µM.
Regarding `N#CSc1cc(SC#N)c(N)nc1N`, the EC50 – broadly, the concentration giving half of the maximal effect – in experiment [5] is 3.9 µM; in experiment [6], 6.9 µM; in experiment [7], 7.2 µM; in experiment [8], 8.6 µM; in experiment [9], 4.9 µM.
As for `Cn1cc(S(=O)(=O)N2CCC(c3ccccc3)CC2)cc1C(=O)NCC(=O)O`, in experiment [1], the equilibrium dissociation constant (Kd) was > 1000 µM.
The same measure, in the same setting: in the case of `CN1CCC(NS(=O)(=O)c2ccc(C(=O)NCC(=O)O)cc2)CC1` it was > 1000 µM; in that of `O=C(O)CNC(=O)c1ccc(S(=O)(=O)N2CCC(N3CCOCC3)CC2)cc1`, > 1000 µM; in that of `O=C(O)CNC(=O)c1ccc(S(=O)(=O)N2CCC(c3ccccc3)CC2)cc1Cl`, 150 µM.
The same measure, in the same setting: then `O=C(O)CNC(=O)c1cccc(S(=O)(=O)N2CCC(c3ccccc3)CC2)c1`, with > 440 µM; and `O=C(O)CNC(=O)c1ccc(S(=O)(=O)N2CCC3(CC2)OCc2ccccc23)cc1`, with 440 µM; and `O=C(O)CNC(=O)c1ccc(S(=O)(=O)N2CC(c3ccccc3)C2)cc1`, with > 1000 µM.
Same read-out and setting: then `O=C(O)CNC(=O)c1ccc(S(=O)(=O)N2Cc3ccccc3C2)cc1`, with > 480 µM.
Regarding `O=C(O)CNC(=O)c1ccc(S(=O)(=O)N2CCCC(c3ccccc3)CC2)cc1` (stereo unspecified), the Kd in [1] is > 640 µM.

For the origin of these results see ChEMBL document CHEMBL5226343, “Structure-Activity Relationship of USP5 Inhibitors” (J Med Chem, 2021).
